In US9102669B2, “Substituted piperidinyl-pyridazinyl derivatives useful as SCD 1 inhibitors” (Janssen Pharmaceutica NV, priority 2011, dated 2015):
pIC50: −log10 of the molar value. Values joined by “and” are separate entries in the source; they are usually repeats but may differ in a detail not shown here. Identical values can stand only once.

Legend:
SCD1 [1] = target: SCD1 (Rattus norvegicus (Rat), UniProt P07308); assay: SCD1 enzymatic assay in rat liver microsomes (RLM); format: biochemical; settings: rat liver microsomes; for inhibition at 1 µM / % Inh.@ 1 μM: 1 μM test compound; for inhibition at 1 µM: read-out: % Inh.@ 1 μM
Method: Step 1: Preparation of Rat Liver Microsome (RLM):
Sprague Dawley rats from Charles River (200-225 g) underwent 2-cycle of fast-re-feeding (24-hour fast followed by 24-hour feeding with fat-free high carbohydrate diet, Reseach Diet, D00042802). The livers were removed and homogenized 1:4 (w/v) with pre-chilled, homogenizing buffer (10 mM Tris-HCl, 0.25 M sucrose, 1 mM EDTA, pH 7.4, supplemented with protease inhibitor cocktail). The homogenate was spun at 12,000×g for 15 min at 4° C. The supernatant was then re-centrifuged at 100,000×g for 60 min at 4° C. The pellet was re-suspended in 2 ml pre-chilled […] potassium phosphate buffer, pH 7.2, 10 mM EDTA at a concentration of 20 mg/ml. The resulting rat liver microsome (RLM) preparation was stored at −80° C.
Step 2: SCD1 Enzymatic Assay in RLM:
The SCD1 enzymatic assay was done in a volume of 50 μL using 10 μg of RLM (prepared as described above) in a 96-well polypropylene plate (enzyme reaction buffer contains 0.1 M K-Phosphate Buffer, 10 mM ATP, 6 mM MgCl2. 1 mM CoA, 1 mM β-NADH, 1.6 mM L-glutathione, 20 μM Stearoyl-CoA). Stearoyl-[9,10-^3H]-CoA (ARC-0390, 1 mCi/mL, 60 Ci/mmol,) was added at a final concentration of 2 μCi/mL. Test compound was then added to the reaction mixture at the selected concentration. After incubation at room temperature for 2 hours, 5 μL 1 N HCl was added to stop the reaction, followed by addition of 25 μL of 10% charcoal. The reaction mixture was then transferred to 96-well Multiscreen plate (Millipore, Cat#MSFCN6B50). […] The measured cpm values were fitted with Sigmoidal dose-response curve fit with Graphpad Prism.

SCD1 [2] = target: SCD1 (Homo sapiens (Human), UniProt O00767); assay: SCD1 13C-palmitic acid assay in A431 cells; format: cell-based; settings: read-out: A431 cells 13C-PA IC50
Method: Human epithelial carcinoma A431 cells were seeded at 100,000 cells/well in complete growth medium (DMEM, Cellgro#10-013-CM, 4.5 g/L glucose, 10% FBS) in the presence of 0.05 mg/mL human insulin (Hannas Pharmaceutical Supply Co Inc, Humanlin 100 U/ml, 4 mg/ml) in 96-well tissue culture plate. 24 hr later, the cells were washed extensively with Assay Buffer (DMEM, Cellgro#10-013-CM, 4.5 g/L glucose, supplemented with 0.05 mg/mL Human Insulin and 0.1% Fatty Acid Free BSA). […] The cells were then returned to the tissue culture incubator (37° C. and 5% CO2) for 4 hrs. At the end of incubation, the cells were washed three times with 200 μL/well Hanks buffer (HBSS) and then stored at −20° C. until extraction.
For fatty acid extraction, after thawing out the plates, 40 μL of 1N KOH (containing 5 μM of internal standard 7,7,8,8-D4 palmitate) was added to each well and cell plates were incubated at 37° C. for 30 minutes. […] Acetonitrile (100 μL) was then added to extract fatty acids, followed by centrifugation at 3000 rpm for 10 minutes. 75 μL of extract was then transferred to a new glass vial in a 96-well cluster plate. 5 μL was injected for LC/MS analysis for detection of ^13C-palmitic acid and ^13C-palmitoleic acid. Formation of product ^13C-palmitoleic acid was determined as an index of SCD1 activity.
LC/MS analysis was performed as following. An Agilent 1100 Liquid Chromatographic System (Palo Alto, Calif.) consisting of a binary pump, a degasser and an autosampler was used. Separation of free fatty acids was performed on a Zorbax SB-C8 column (2.1×50 mm, particle size=3.5 μm). An isocratic elution was carried out with 10 mM triethylamine acetate in water: acetonitrile (3:7) at a flow rate of 0.3 mL/min. The column temperature was set at 30° C. and the sample injection volume was 5 μL. The LC run cycle was 4 min. A Micromass triple-quadrupole Quattro Micro mass […] (Waters, Beverly, Mass.) was interfaced with the LC system through a Z-spray electrospray ion source and was operated in the negative ion mode. Nitrogen was used as nebulizing gas, desolvation gas and cone curtain gas and argon was chosen as collision gas. The triple quadrupole MS source parameters were set as follows: capillary voltage, 3200V; cone voltage, 25V; exctractor 2V; source temperature, 120° C.; desolvation temperature, 300° C.; cone gas flow, 50 L/h; and desolvation gas flow, 700 L/h. […] MassLynx software version 4.0 was used for system control and data processing. The signal of U-^13C-palmitoleic acid was normalized to an internal standard.

SCD1 (Homo sapiens (Human), UniProt O00767), sequence (O00767 whole entry): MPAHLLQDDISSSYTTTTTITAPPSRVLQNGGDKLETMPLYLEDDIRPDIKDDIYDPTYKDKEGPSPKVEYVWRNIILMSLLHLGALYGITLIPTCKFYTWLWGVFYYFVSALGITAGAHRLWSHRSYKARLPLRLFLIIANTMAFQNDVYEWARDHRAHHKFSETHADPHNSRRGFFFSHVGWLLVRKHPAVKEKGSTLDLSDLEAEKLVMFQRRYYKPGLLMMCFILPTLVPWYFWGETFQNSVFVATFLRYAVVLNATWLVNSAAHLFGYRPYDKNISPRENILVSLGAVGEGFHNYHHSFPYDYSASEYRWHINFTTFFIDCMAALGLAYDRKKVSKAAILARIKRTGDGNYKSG
SCD1 (Rattus norvegicus (Rat), UniProt P07308), sequence (P07308 whole entry): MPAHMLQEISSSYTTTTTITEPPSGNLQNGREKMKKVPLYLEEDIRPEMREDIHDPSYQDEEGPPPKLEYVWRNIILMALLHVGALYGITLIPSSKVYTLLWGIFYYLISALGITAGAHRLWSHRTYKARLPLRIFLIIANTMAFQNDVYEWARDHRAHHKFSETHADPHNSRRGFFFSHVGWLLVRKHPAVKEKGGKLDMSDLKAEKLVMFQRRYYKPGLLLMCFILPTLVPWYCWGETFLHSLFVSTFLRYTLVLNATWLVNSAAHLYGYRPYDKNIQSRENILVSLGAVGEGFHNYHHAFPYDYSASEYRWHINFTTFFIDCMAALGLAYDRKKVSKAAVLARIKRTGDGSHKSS

| inhibition at 1 µM (SCD1 [1]) [%] | pIC50 (SCD1 [1]) | pIC50 (SCD1 [2]) | SMILES | % Inh.@ 1 μM (SCD1 [1]) [%] |
| --- | --- | --- | --- | --- |
| 100 | 7.68 | 7.64 | Cc1cnn(-c2ccc(N3CCC(N4CCc5ccc(F)cc54)CC3)nn2)c1 [Compound #16, 6-fluoro-1-(1-(6-(4-methyl-1H-pyrazol-1-yl)pyridazin-3-yl)piperidin-4-yl)indoline] | – |
| 94 | 7.77 | 7.40 and 7.72 | CCn1cc(-c2ccc(N3CCC(N4CCc5ccc(F)cc54)CC3)nn2)cn1 [Compound #21, 1-(1-(6-(1-ethyl-1H-pyrazol-4-yl)pyridazin-3-yl)piperidin-4-yl)-6-fluoroindoline] | – |
| 97 | 8.15 | 8.70 | Cc1csc(-c2ccc(N3CCC(N4CCc5ccc(F)cc54)CC3)nn2)n1 [Compound #29, 2-(6-(4-(6-fluoroindolin-1-yl)piperidin-1-yl)pyridazin-3-yl)-4-methylthiazole] | – |
| 95 | 8.22 and 7.72 | 8.70 and 8.52 | Cc1ccc(-c2ccc(N3CCC(N4CCc5ccc(F)cc54)CC3)nn2)cn1 [Compound #30, 6-fluoro-1-(1-(6-(6-methylpyridin-3-yl)pyridazin-3-yl)piperidin-4-yl)indoline] | 99 |
| 97 | 7.51 | 8.40 and 7.72 | Cc1cnc(-c2ccc(N3CCC(N4CCc5ccc(F)cc54)CC3)nn2)s1 [Compound #31, 2-(6-(4-(6-fluoroindolin-1-yl)piperidin-1-yl)pyridazin-3-yl)-5-methylthiazole] | – |
| 92 | 7.10 | 8.52 and 7.74 | Cc1ccc(-c2ccc(N3CCC(N4CCc5ccc(F)cc54)CC3)nn2)cc1 [Compound #36, 6-fluoro-1-(1-(6-(p-tolyl)pyridazin-3-yl)piperidin-4-yl)indoline] | – |
| 98 | 7.92 | 8.40 | COc1ccc(-c2ccc(N3CCC(N4CCc5ccc(F)cc54)CC3)nn2)cn1 [Compound #37, 6-fluoro-1-(1-(6-(6-methoxypyridin-3-yl)pyridazin-3-yl)piperidin-4-yl)indoline] | – |
| 71 | 7.46 | 8.22 | CNC(=O)c1ccc(-c2ccc(N3CCC(N4CCc5ccc(F)cc54)CC3)nn2)cn1 [Compound #42, 5-(6-(4-(6-fluoroindolin-1-yl)piperidin-1-yl)pyridazin-3-yl)-N-methylpicolinamide] | – |
| 90 | 7.70 | 7.96 | OCCc1cnn(-c2ccc(N3CCC(N4CCc5ccc(F)cc54)CC3)nn2)c1 [Compound #43, 2-(1-(6-(4-(6-fluoroindolin-1-yl)piperidin-1-yl)pyridazin-3-yl)-1H-pyrazol-4-yl)ethanol] | – |
| 59 | 6.11 | – | Fc1ccc(-c2ccc(N3CCC(N4CCc5ccc(F)cc54)CC3)nn2)cc1 [Compound #53, 6-fluoro-1-(1-(6-(4-fluorophenyl)pyridazin-3-yl)piperidin-4-yl)indoline] | – |
| 57 | 6.17 | – | Cn1cc(-c2ccc(N3CCC(N4CCc5c(F)cccc54)CC3)nn2)cn1 [Compound #66, 4-fluoro-1-(1-(6-(1-methyl-1H-pyrazol-4-yl)pyridazin-3-yl)piperidin-4-yl)indoline] | – |
| 27 | – | – | CC(=O)NNC(=O)c1ccc(N2CCC(c3noc4ccc(F)cc34)CC2)nn1 [Compound I2, N′-acetyl-6-(4-(5-fluorobenzo[d]isoxazol-3-yl)piperidin-1-yl)pyridazine-3-carbohydrazide] | – |
| 45 | < 6.00 | – | Cc1ccc(-c2ccc(N3CCC(c4noc5ccc(F)cc45)CC3)nn2)cc1 [compound 32, 5-fluoro-3-(1-(6-(p-tolyl)pyridazin-3-yl)piperidin-4-yl)benzo[d]isoxazole] | – |
| 38 | < 6.00 | – | Cn1cc(-c2ccc(N3CCC(n4c(C(F)(F)F)nc5ccccc54)CC3)nn2)cn1 [compound 41, 1-(1-(6-(1-methyl-1H-pyrazol-4-yl)pyridazin-3-yl)piperidin-4-yl)-2-(trifiuoromethyl)-1H-benzo[d]imidazole] | – |
| 60 | 6.03 | – | Cn1cc(-c2ccc(N3CCC(n4nnc5ccccc54)CC3)nn2)cn1 [compound 48, 1-(1-(6-(1-methyl-1H-pyrazol-4-yl)pyridazin-3-yl)piperidin-4-yl)-1H-benzo[d][1,2,3]triazoie] | – |
| 8 | < 6.00 | – | CC(C)(C)OC(=O)c1ccc(-c2ccc(N3CCC(N4CCc5ccc(F)cc54)CC3)nn2)cc1 [compound 55, tert-butyl 4-(6-(4-(6-fluoroindolin-1-yl)piperidin-1-yl)pyridazin-3-yl)benzoate] | – |
| 28 | < 6.00 | – | NC(=O)c1ccc(-c2ccc(N3CCC(N4CCc5ccc(F)cc54)CC3)nn2)cc1 [compound 56, 4-(6-(4-(6-fluoroindolin-1-yl)piperidin-1-yl)pyridazin-3-yl)benzamide] | – |
| 32 | < 6.00 | – | Cn1cc(-c2ccc(N3CCC(N4CCc5c(Cl)cccc54)CC3)nn2)cn1 [compound 67, 4-chloro-1-(1-(6-(1-methyl-1H-pyrazol-4-yl)pyridazin-3-yl)piperidin-4-yl)indoline] | – |
| 34 | – | – | Cn1cc(-c2ccc(N3CCC(N4CCc5c(Cl)cc(Cl)cc54)CC3)nn2)cn1 [compound 68, 4,6-dichloro-1-(1-(6-(1-methyl-1H-pyrazol-4-yl)pyridazin-3-yl)piperidin-4-yl)indoline] | – |
| 45 | – | – | Fc1ccc2onc(C3CCN(c4ccc(-n5cccn5)nn4)CC3)c2c1 [compound 87, 3-(1-(6-(1H-pyrazol-1-yl)pyridazin-3-yl)piperidin-4-yl)-5-fluorobenzo[d]isoxazole] | – |
| 29 | – | – | Cc1cn(-c2ccc(N3CCC(N4CCCc5ccccc54)CC3)nn2)cn1 [compound 90, 1-(1-(6-(4-methyl-1H-imidazol-1-yl)pyridazin-3-yl)piperidin-4-yl)-1,2,3,4-tetrahydroquinoline] | – |
| 41 | – | – | Cc1nccn1-c1ccc(N2CCC(c3noc4ccc(F)cc34)CC2)nn1 [compound 93, 5-fluoro-3-(1-(6-(2-methyl-1H-imidazol-1-yl)pyridazin-3-yl)piperidin-4-yl)benzo[d]isoxazole] | – |

| SMILES | inhibition at 1 µM (SCD1 [1]) [%] | pIC50 (SCD1 [1]) | pIC50 (SCD1 [2]) | % Inh.@ 1 μM (SCD1 [1]) [%] |
| --- | --- | --- | --- | --- |
| OCc1cn(-c2ccc(N3CCC(N4CCc5ccc(F)cc54)CC3)nn2)cn1 [Compound #15] | 101 | 7.96 | 8.52 | – |
| CN(C)c1ccc(-c2ccc(N3CCC(N4CCc5ccc(F)cc54)CC3)nn2)cn1 [Compound #44, 5-(6-(4-(6-fluoroindolin-1-yl)piperidin-1-yl)pyridazin-3-yl)-N,N-dimethylpyridin-2-amine] | 92 | 7.70 and 7.85 | 7.49 and 7.55 | 97 |
| Cn1cc(-c2ccc(N3CCC(n4ccc5ccc(F)cc54)CC3)nn2)cn1 [Compound #63, 6-fluoro-1-(1-(6-(1-methyl-1H-pyrazol-4-yl)pyridazin-3-yl)piperidin-4-yl)-1H-indole] | 99 | – | – | – |
